Columns and labels:
[1] = molecular target: T1, ErbB2 or EGFR; assay: ErbB family substrate phosphorylation enzyme assay (HTRF), Method A or Method B; format: biochemical; conditions: Method B: enzyme mix pre-incubated with compound 1 hour at 20° C., started with substrate mix
T1 construct: enzymes purified from a baculovirus expression system; Reagent production was conducted essentially as described in Brignola, P. S., et al, (2002) J. Biol. Chem. 277(2): 1576-1585
Summary of the method: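 Baculovirus-expressed EGFR or ErbB2 (0.8 or 10 nM in enzyme mix) phosphorylates biotinylated Peptide C with 20 µM ATP and 0.8 µM peptide (substrate-mix levels), MnCl2, pH 7.5. Reaction ran 90 min at 20 °C with EDTA stop and HTRF anti-phosphotyrosine read. Method A: enzyme added last; Method B: 1 h enzyme–compound preincubation.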

[2] = tested on: BT474 and HN5 tumor cell lines; assay: Celltiter Glo growth inhibition assay (cellular Method B); format: cell-based; conditions: Homo sapiens, BT-474, 72 h, 3 days, read-out: Activity (Method): growth inhibition IC50 class
Procedure: (§1) Human breast tumor cells (BT474) were cultured in RPMI, (Invitrogen, 22400) containing 10% fetal bovine serum (FBS). Human head and neck tumor cells (HN5) were cultured in low glucose DMEM (Invitrogen, 12320) containing 10% FBS. Human colon tumor cells (Colo205) were cultured in DMEM (Invitrogen, 10564) containing 10% FBS. All cell lines were maintained at 37° C. in a humidified 5% CO2, 95% air incubator. Cells were harvested using trypsin/EDTA, counted using a haemocytometer, and plated in 30 microliters of the appropriate media described above, at the following densities, in a half area, black-walled, 96-well tissue culture plate (Corning 3882): BT474 3,000 cells/well, HN5 500 cells/well and Colo205 cells, 3,000 cells/well. The next day, compounds were diluted in DMEM containing […] gentamicin, from 10 mM stock solutions in DMSO. 30 microliters/well of these dilutions were added to the 30 microliters/well of media currently on the cell plates. Medium containing 0.6% DMSO was added to control wells. The final concentration of DMSO in all wells was 0.3%. Cells were incubated at 37° C., 5% CO2 for 3 days. Cell biomass was estimated using Celltiter Glo (Promega G7571). Briefly, plates were removed from the incubator and allowed to equilibrate to rt for 30 minutes. 60 microliters of Celltiter Glo reagent were added to each well of the treated cells and plates were shaken on an orbital plate shaker for 2 min. Plates were incubated without shaking for 30 more min and read in a luminometer with an integration time of 0.5 seconds per well. Percent inhibition of cell growth was calculated relative to vehicle treated control wells. Concentration of compound that inhibits 50% of vehicle control cell growth (IC50) was interpolated using nonlinear regression (Levenberg-Marquardt) and the equation, y=Vmax*(1−(x/(K+x)))+Y2, where “K” was equal to the IC50.

[3] = tested on: Colo205 tumor cell lines; assay: Celltiter Glo growth inhibition assay (cellular Method B), Colo205; format: cell-based; conditions: Homo sapiens, COLO 205, 72 h, 3 days, read-out: Activity (Method): growth inhibition IC50 class
Procedure: as §1

[4] = tested on: BT474 and HN5 tumor cell lines; assay: Methylene blue growth inhibition assay (cellular Method A); format: cell-based, Human; conditions: Homo sapiens, BT-474, 72 h, 3 days, read-out: Activity (Method): growth inhibition IC50 class
Summary of the method: (§2)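 Colo205, BT474 and HN5 cells in DMEM/10% FBS (BT474 10,000, HN5 3,000 cells/well) treated next day with compound in DMEM, 0.3% final DMSO, for 3 days at 37° C. Biomass stained with methylene blue, solubilized, read at OD 620; IC50 interpolated by nonlinear regression from % inhibition versus vehicle.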

[5] = tested on: Colo205 tumor cell lines; assay: Methylene blue growth inhibition assay (cellular Method A), Colo205; format: cell-based, Human; conditions: Homo sapiens, COLO 205, 72 h, 3 days, read-out: Activity (Method): growth inhibition IC50 class
Summary of the method: as §2

SMILES	IC50 [2]	IC50 [3]	IC50 [4]	IC50 [5]	Activity (Method): pIC50 class against ErbB2 or EGFR [1]
O=C(Nc1cccc(-c2nn3ccccc3c2-c2ccnc(Nc3cccc(F)c3)n2)c1)c1c(F)cccc1F [Example 115, 2,6-Difluoro-N-[3-(3-{2-[(3-fluorophenyl)amino]-4-pyrimidinyl}pyrazolo[1,5-a]pyridin-2-yl)phenyl]benzamide]	< 100 nM	> 1000 nM	–	–	++ (B) (at least one pIC50 measurement greater than 6 against either ErbB2 or EGFR but no measurement greater than pIC50 of 7)
CN(C)CCOc1ccc(Nc2nccc(-c3c(-c4cccc(NC(=O)c5c(F)cccc5F)c4)nn4ccccc34)n2)cc1Cl [Example 128, N-[3-(3-{2-[(3-Chloro-4-{[2-(dimethylamino)ethyl]-oxy}phenyl)amino]-4-pyrimidinyl}pyrazolo[1,5-a]pyridin-2-yl)phenyl]-2,6-difluorobenzamide]	< 100 nM	> 1000 nM	–	–	+++ (B) (at least one pIC50 measurement of greater than 7 against either ErbB2 or EGFR)
CS(=O)(=O)Cc1cccc(Nc2nccc(-c3c(-c4cccc(NC(=O)c5c(F)cccc5F)c4)nn4ccccc34)n2)c1 [Example 135, 2,6-Difluoro-N-(3-{3-[2-({3-[(methylsulfonyl)methyl]phenyl}amino)-4-pyrimidinyl]pyrazolo[1,5-a]pyridin-2-yl}phenyl)benzamide]	< 100 nM	> 1000 nM	–	–	+++ (B) (at least one pIC50 measurement of greater than 7 against either ErbB2 or EGFR)
COc1ccc(-c2nn3ccccc3c2-c2ccnc(Nc3cccc(CN(C)C)c3)n2)cc1NC(=O)c1c(F)cccc1F [Example 192, N-[5-{3-[2-({3-[(dimethylamino)methyl]phenyl}amino)-4-pyrimidinyl]pyrazolo[1,5-a]pyridin-2-yl}-2-(methyloxy)phenyl]-2,6-difluorobenzamide]	–	–	> 1000 nM	> 1000 nM	+ (B) (no pIC50 measurement greater than 6 against either ErbB2 or EGFR)
C=CCN(C)CCOc1cccc(Nc2nccc(-c3c(-c4cccc(NC(=O)c5c(F)cccc5F)c4)nn4ccccc34)n2)c1 [Example 195, 2,6-Difluoro-N-{3-[3-(2-{[3-({2-[methyl(2-propen-1-yl)amino]ethyl}oxy)phenyl]amino}-4-pyrimidinyl)pyrazolo[1,5-a]pyridin-2-yl]phenyl}benzamide]	–	–	100 to 1000 nM	> 1000 nM	+++ (B) (at least one pIC50 measurement of greater than 7 against either ErbB2 or EGFR)
O=C1COc2cc(Nc3nccc(-c4c(-c5cccc(NC(=O)c6c(F)cccc6F)c5)nn5ccccc45)n3)ccc2N1 [Example 200, 2,6-Difluoro-N-[3-(3-{2-[(3-oxo-3,4-dihydro-2H-1,4-benzoxazin-7-yl)amino]-4-pyrimidinyl}pyrazolo[1,5-a]pyridin-2-yl)phenyl]benzamide]	–	–	< 100 nM	100 to 1000 nM	+++ (B) (at least one pIC50 measurement of greater than 7 against either ErbB2 or EGFR)
COc1ccc(Nc2nccc(-c3c(-c4cccc(NC(=O)c5c(F)cccc5F)c4)nn4ccccc34)n2)cc1N1CCN(C)CC1 [Example 201, 2,6-Difluoro-N-{3-[3-(2-{[4-(methyloxy)-3-(4-methyl-1-piperazinyl)phenyl]amino}-4-pyrimidinyl)pyrazolo[1,5-a]pyridin-2-yl]phenyl}benzamide]	–	–	< 100 nM	100 to 1000 nM	+++ (B) (at least one pIC50 measurement of greater than 7 against either ErbB2 or EGFR)

More lines, main results first:

IC50 [2]	IC50 [3]	IC50 [4]	IC50 [5]	SMILES	Activity (Method): pIC50 class against ErbB2 or EGFR [1]
–	100 to 1000 nM	< 100 nM	–	Cc1ncoc1-c1cccc(Nc2nccc(-c3c(-c4cccc(NC(=O)c5c(F)cccc5F)c4)nn4ccccc34)n2)c1 [Example 178, 2,6-Difluoro-N-{3-[3-(2-{[3-(4-methyl-1,3-oxazol-5-yl)phenyl]amino}-4-pyrimidinyl)pyrazolo[1,5-a]pyridin-2-yl]phenyl}benzamide]	+++ (B) (at least one pIC50 measurement of greater than 7 against either ErbB2 or EGFR)
–	–	< 100 nM	100 to 1000 nM	CN1CCc2ccc(Nc3nccc(-c4c(-c5cccc(NC(=O)c6c(F)cccc6F)c5)nn5ccccc45)n3)cc2C1 [Example 179, 2,6-Difluoro-N-[3-(3-{2-[(2-methyl-1,2,3,4-tetrahydro-7-isoquinolinyl)amino]-4-pyrimidinyl}pyrazolo[1,5-a]pyridin-2-yl)phenyl]benzamide]	+++ (B) (at least one pIC50 measurement of greater than 7 against either ErbB2 or EGFR)
–	–	< 100 nM	> 1000 nM	CN1CCc2ccc(Nc3nccc(-c4c(-c5cccc(NC(=O)c6cc(F)ccc6F)c5)nn5ccccc45)n3)cc2C1 [Example 189, 2,5-Difluoro-N-[3-(3-{2-[(2-methyl-1,2,3,4-tetrahydro-7-isoquinolinyl)amino]-4-pyrimidinyl}pyrazolo[1,5-a]pyridin-2-yl)phenyl]benzamide]	+++ (B) (at least one pIC50 measurement of greater than 7 against either ErbB2 or EGFR)
–	–	< 100 nM	100 to 1000 nM	Cc1ccc(F)c(C(=O)Nc2cccc(-c3nn4ccccc4c3-c3ccnc(Nc4cccc(OCCN(C)C)c4)n3)c2)c1F [Example 190, N-[3-(3-{2-[(3-{[2-(Dimethylamino)ethyl]oxy}phenyl)amino]-4-pyrimidinyl}pyrazolo[1,5-a]pyridin-2-yl)phenyl]-2,6-difluoro-3-methylbenzamide]	+++ (B) (at least one pIC50 measurement of greater than 7 against either ErbB2 or EGFR)
–	–	< 100 nM	100 to 1000 nM	C=CCN(C)CCOc1cccc(Nc2nccc(-c3c(-c4cccc(NC(=O)c5cc(F)ccc5F)c4)nn4ccccc34)n2)c1 [Example 196, 2,5-Difluoro-N-{3-[3-(2-{[3-({2-[methyl(2-propen-1-yl)amino]ethyl}oxy)phenyl]amino}-4-pyrimidinyl)pyrazolo[1,5-a]pyridin-2-yl]phenyl}benzamide]	+++ (B) (at least one pIC50 measurement of greater than 7 against either ErbB2 or EGFR)
–	–	< 100 nM	100 to 1000 nM	O=C1COc2ccc(Nc3nccc(-c4c(-c5cccc(NC(=O)c6c(F)cccc6F)c5)nn5ccccc45)n3)cc2N1 [Example 197, 2,6-Difluoro-N-[3-(3-{2-[(3-oxo-3,4-dihydro-2H-1,4-benzoxazin-6-yl)amino]-4-pyrimidinyl}pyrazolo[1,5-a]pyridin-2-yl)phenyl]benzamide]	+++ (B) (at least one pIC50 measurement of greater than 7 against either ErbB2 or EGFR)
–	–	< 100 nM	100 to 1000 nM	CN(C)CCCOc1cccc(Nc2nccc(-c3c(-c4cccc(NC(=O)c5c(F)cccc5F)c4)nn4ccccc34)n2)c1 [Example 198, N-[3-(3-{2-[(3-{[3-(dimethylamino)propyl]oxy}phenyl)amino]-4-pyrimidinyl}pyrazolo[1,5-a]pyridin-2-yl)phenyl]-2,6-difluorobenzamide]	+++ (B) (at least one pIC50 measurement of greater than 7 against either ErbB2 or EGFR)
–	–	< 100 nM	> 1000 nM	Cc1nc2cc(Nc3nccc(-c4c(-c5cccc(NC(=O)c6c(F)cccc6F)c5)nn5ccccc45)n3)ccc2s1 [Example 199, 2,6-Difluoro-N-[3-(3-{2-[(2-methyl-1,3-benzothiazol-5-yl)amino]-4-pyrimidinyl}pyrazolo[1,5-a]pyridin-2-yl)phenyl]benzamide]	+++ (B) (at least one pIC50 measurement of greater than 7 against either ErbB2 or EGFR)
